Data set [1] deals with Z-HP9. In words: SPR off-rate screening (single-cycle kinetics), immobilized Z-HP9. The class given is binding. The conditions noted are these: primary probe HP9 (immobilized Z-HP9), 25 °C, PBS-T pH 7.4, 120 nM HP16/HP20 or 362 nM HP21/HP19, dissociation 150 min, 1:1 model, duplicates. How it is done:
(§1) The stability of new pretargeting probe combinations was assessed using SPR, and duplex melting temperatures were measured with UV–vis spectroscopy. In SPR, a high concentration of the secondary probe was injected over immobilized primary agents, and the dissociation of the hybridized complexes was monitored over 150 min (see Figures 3A, S22, and Table 2).
(§2) We utilized SPR on a Biacore T200 instrument (Cytiva) to examine how secondary PNA probes (6-mer HP19, 7-mer HP21, 8-mer HP20, and 9-mer HP16) bind to primary agents. These experiments were conducted using dextran-coated CM5 sensor chips and PBS-T buffer at pH 7.4. The ligands were immobilized through a standard EDC/NHS coupling method, and the chip surface was sealed with ethanolamine. A reference surface with no primary agent was also included.
(§3) For ranking the off-rate (kd) of the secondary probes, we employed single-cycle kinetics (SCK) at 25 °C with a flow rate of 50 μL/min. […] Secondary PNA probes were injected at various concentrations, and dissociation was monitored for 10,000 s. To regenerate the chip surface, we used two 30 s injections of 10 mM glycine-HCl, pH 1.5.
(§4) All SPR experiments were performed in duplicate, and data analysis was conducted using the Biacore T200 Evaluation software version 2.0 with a 1:1 binding model.
(§5) Figure S22: Representative SPR sensorgrams of the dissociation phase of HP16 (9-mer), HP20 (8-mer), HP21 (7-mer) and HP19 […]
(§6) After injection with the secondary probe
(§7) (120 nM of HP16 and HP20 or 362 nM of HP21 and HP19) the dissociation of the formed complex was followed for 150 minutes. All experiments were done in duplicates, and the data presented is double-referenced (reference channel and buffer injection are subtracted).
(§8) (1 picture or pasted object on this page, not shown here)

Data set [2] deals with HP6. Kind of data set: UV melting of PNA:PNA duplex with primary probe HP6. In kind it is physicochemical. The settings on record: UV 260 nm, 20-95 °C at 1 °C/min, 5 μM each probe, 10 mM phosphate buffer, 10 mM KCl, pH 7.4. The protocol: (§9) The melting temperatures of secondary probes after duplex formation with primary probes were also measured by monitoring the absorbance at 260 nm as a function of temperature (see Figure S23). All probe pairs had melting temperatures well above 37 °C (body temperature) and ranged from 51 °C for the HP6:HP19 pair with 6 complementary bases to 82 °C for the previously studied HP15:HP18 pair with 15 complementary bases (see Figure 3B and Table 2). […] This secondary structure is typically adopted by antiparallel and L-amino acid-modified PNA–PNA duplexes at neutral pH.[49]
Figure S23: Normalized temperature melting profiles from 20–95°C for different primary and secondary probe pairs. UV melting curves at 260 nm. […]
(§10) Circular dichroism (CD) and UV melts of PNA:PNA duplexes were measured on a CD spectrometer (Applied Photophysics, Leatherhead, UK) with Peltier temperature control and an external temperature probe. […]
(§11) from 20°C to 95°C with a 1°C/min temperature gradient. Simultaneously, the UV absorbance at 260 nm was recorded as a function of temperature. Fraction melted data was calculated […]
(§12) Fraction melted = 1 ― UVds― UVss , where UVss and UVds are the UV absorbances at 95°C and 20°C, respectively. The melting temperature (Tm) was determined as the maximum of the first derivative of the melting curve and was computed using the Global 3 analysis software (Applied Photophysics, […]

Data set [3] concerns the target Z-HP12. Kind of data set: SPR off-rate screening (single-cycle kinetics), immobilized Z-HP12. In kind it is binding. The settings on record: primary probe HP12 (immobilized Z-HP12), 25 °C, PBS-T pH 7.4, 120 nM HP16/HP20 or 362 nM HP21/HP19, dissociation 150 min, 1:1 model, duplicates. The protocol: as §1, §2, §3, §4, §5, §6, §7, §8
The subject of data set [4] is HP12. Kind of data set: UV melting of PNA:PNA duplex with primary probe HP12. The class given is physicochemical. The settings on record: UV 260 nm, 20-95 °C at 1 °C/min, 5 μM each probe, 10 mM phosphate buffer, 10 mM KCl, pH 7.4. How it is done: as §9
(§13) Figure S23: Normalized temperature melting profiles from 20–95°C for different primary and secondary probe pairs. UV melting curves at 260 nm. (A) HP15 (15-mer) toward secondary 15-, 12- and 9-mers. (B) HP12 (12-mer) toward secondary 12-, 9-, 8-, 7- and 6-mers. (C) HP9 (9-mer) toward secondary 9-, 8-, 7- and 6-mers. (D) HP6 (6-mer) toward secondary 6-mer.
(§14) Concentrations of duplexes in A–D are 5 μM in 10 mM […] with 10 mM KCl at pH 7.4.
(§15) (also on this page, place not known: Fraction melted Fraction meltedFraction melted Fraction melted) […]
(§16) Supplementary Material and methods […]
(§17) Biophysical characterization of PNA:PNA duplexes using CD Spectroscopy and […]
(§18) Circular dichroism (CD) and UV melts of PNA:PNA duplexes were measured on a CD spectrometer (Applied Photophysics, Leatherhead, UK) with Peltier temperature control and an external temperature probe. RP-HPLC purified and lyophilized PNA probes were dissolved in 10 mM phosphate buffer with 10 mM KCl at pH 7.4. Samples contained both primary and complementary secondary PNA probes at a final concentration of 5 µM for each probe. These samples were initially heated to 95°C for five minutes, allowed to cool to room temperature, and then transferred to a quartz cuvette with a 1.0 cm path length. A temperature probe was inserted into the solution through the cuvette's rubber cap. […]
as §11, §12
(§19) CD spectra in the range of 200–300 nm were recorded for all hybridized PNA:PNA pairs at 20°C before and after the UV melting experiments. All CD spectra were baseline subtracted and presented as an average of five scans.

The test system of data set [5] is HP9. In words: UV melting of PNA:PNA duplex with primary probe HP9. The class given is physicochemical. The settings on record: UV 260 nm, 20-95 °C at 1 °C/min, 5 μM each probe, 10 mM phosphate buffer, 10 mM KCl, pH 7.4. How it is done: as §9, §13, §14, §15, §16, §17, §18, §11, §12, §19
Data set [6] has as its target Z-HP15. In words: SPR off-rate screening (single-cycle kinetics), immobilized Z-HP15. The class given is binding. The settings on record: primary probe HP15 (immobilized Z-HP15), 25 °C, PBS-T pH 7.4, 120 nM HP16/HP20 or 362 nM HP21/HP19, dissociation 150 min, 1:1 model, duplicates. The protocol: as §1, §2, §3, §4, §5, §6, §7, §8
Data set [7] in a line: Solubility of secondary probes in labeling buffer. The class given is physicochemical. The settings on record: 0.2 M NH4Ac; for maximum soluble concentration / increase in solubility compared to the 15-mer HP18: pH 5.5, 25 °C; for maximum soluble concentration: heated 95 °C 5 min, 18-h static incubation, centrifugation, UV 260 nm of supernatant, highest concentration with at least 95% still soluble, duplicates. The protocol:
However, as we moved to shorter PNA oligomers, solubility saw a substantial, nonlinear increase. […] For example, at 25 °C, the maximum soluble concentration of HP17 (12-mer) was around 6 μM. […]
pH 5.5 at 25°C. Dilution series of HPLC-purified and lyophilized secondary probes (1, 3, 6, 9, 13, 26, 39, 52 and 65 µM) for […]
samples were heated at 95°C for five minutes and concentration of the soluble fraction was determined by UV absorption at 260 nm before (grey bars), and after (black bars) an 18-hour static incubation at 25°C. Duplicates were prepared of all samples and the data is presented as the mean ± SD. The maximum soluble concentration of each probe, indicated in panels A-E as a dotted line, was defined as the highest concentration at which at least 95% is still in the soluble fraction after an 18-hour incubation at 25°C. PNA-aggregates are temperature-labile, as exemplified in panel C for 82 µM HP17.
After an 18-hour incubation 25°C, 6 µM is left in the soluble fraction (left black bar) but heating the sample at 95 °C for five minutes completely redissolved HP17 aggregates into solution (right black bar).
as §8
Supplementary Material and methods
Solubility of secondary probes
HPLC-purified and freeze-dried secondary probes were resuspended in 10 mM NaAc, pH 3.5-3.6 and freeze-dried in smaller aliquots. The secondary probes were re-dissolved in 0.2 M NH4Ac, pH 5.5, and the samples were heated at 95 °C for five minutes to ensure complete dissolvement. Dilution series of secondary probes (1, 3, 6, 9, 13, 26, 39, 52 and 65 μM) for […]
NH4Ac, pH 5.5. The samples were then left for an 18-hour static incubation at 25 C, before being centrifugated at 21,100 x g for 5 minutes on a standard benchtop centrifuge (Eppendorf). The supernatants were transferred to fresh 1.5 mL Eppendorf-tubes, and the […]

Data set [8] has as its system HP15. Kind of data set: UV melting of PNA:PNA duplex with primary probe HP15. The class given is physicochemical. The settings on record: UV 260 nm, 20-95 °C at 1 °C/min, 5 μM each probe, 10 mM phosphate buffer, 10 mM KCl, pH 7.4. The protocol: as §9, §13, §14, §15, §16, §17, §10, §11, §12
CD spectra in the range of 200–300 nm were recorded for all hybridized PNA:PNA pairs at 20°C before and after the UV melting experiments. […]

The target in data set [9] is Z-HP15. The conditions noted are these: SPR, primary probe HP15; cited from earlier work. From the text: Table 2 Dissociation Rate Constants (kds) and Melting Temperatures (Tms) of the PNA Probe Duplexes ^a | column: kd (s^–1)
Data set [10] has as its system Z-HP9. Kind of data set: Multicycle kinetic SPR, immobilized Z-HP9. The settings on record: MCK SPR. In kind it is binding. How it is done: as §2
Association and dissociation times were set at 700 and 1800 s, respectively, with regeneration accomplished through a 30 s injection of 10 mM glycine-HCl, pH 1.5.
as §4

Like-named read-outs stand apart in the source and are kept apart here. A value given as a limit tells only on which side of the number the result lay.

For the substance “DOTA-AEEA-SS-accagg-EEY-NH2 [HP19, 6-mer secondary PNA probe with DOTA]”, the kd is reported as 2.8 × 10^–4 s^–1 in [1], 6.2 × 10^–4 s^–1 in [3] and 5.0 × 10^–4 s^–1 in data set [6]. Besides, the results for the Tm in [2], in [4] and in data set [5] were 51 °C, 56 °C and 55 °C, respectively.

“DOTA-AEEA-SS-atcatcaacaccagg-EEY-NH2 [HP18, 15-mer secondary PNA probe with DOTA]” gave a maximum soluble concentration in [7] of 3 µM. Moreover, in data set [8], the Tm (as a rule, the temperature at the midpoint of the melting transition) was 82 °C. Further, the kd in data set [9] is recorded as <10^–5 ^b s^–1.

“DOTA-AEEA-SS-acaccagg-EEY-NH2 [HP20, 8-mer secondary PNA probe with DOTA]”: the “increase in solubility compared to the 15-mer HP18” value in data set [7] is approximately 100 fold. The substance also gave a maximum soluble concentration in data set [7] of 370 µM. Also, the kd in [1] is 2.6 × 10^–5 s^–1; in data set [10] (primary probe HP9, 25 °C), 6.6 × 10^–5 s^–1; in data set [10] (primary probe HP9, 37 °C), 1.7 × 10^–4 s^–1; in data set [3], 1.6 × 10^–5 s^–1; in [6], 1.4 × 10^–5 s^–1. In addition, the ka in data set [10] (primary probe HP9 (Z-HP9 immobilized), 25 °C, 1.4-70 nM, 1:1 model, duplicates) is given as 1.2 × 10^5 M^–1 s^–1; in [10] (primary probe HP9, 37 °C), 2.2 × 10^5 M^–1 s^–1. Moreover, the Kd (commonly the constant that tells how readily two partners part at equilibrium) in data set [10] (primary probe HP9, 25 °C) is 0.55 nM; in data set [10] (primary probe HP9, 37 °C), 0.79 nM. Besides, the Tm in data set [4] stood at 66 °C; in [5] it was 64 °C.

On to “DOTA-AEEA-SS-atcaacaccagg-EEY-NH2 [HP17, 12-mer secondary PNA probe with DOTA]”, for which, in data set [7], the “increase in solubility compared to the 15-mer HP18” value is recorded as “approximately 2 fold” and the maximum soluble concentration amounted to 6 µM. In addition, the “solubility after 5 min at 95 °C” value in [7] (pH 5.5, 82 µM sample reheated at 95 °C for 5 min after 18 h at 25 °C, UV 260 nm) is listed as “exceeded 82 μM”. In [8], the Tm is 78 °C. The kd in data set [9] is <10^–5 ^b s^–1. Also, the Tm in [4] worked out at 75 °C.

With “DOTA-AEEA-SS-caccagg-EEY-NH2 [HP21, 7-mer secondary PNA probe with DOTA]”, the kd is 9.2 × 10^–5 s^–1 in data set [1], 4.5 × 10^–5 s^–1 in [3] and 5.5 × 10^–5 s^–1 in [6]. Also, the Tm in [4] and in [5] was 60 °C each time.

(Values after paper PMC11091976, “Shorter Peptide Nucleic Acid Probes Improve Affibody-Mediated Peptide Nucleic Acid-Based Pretargeting” (ACS Pharmacology & Translational Science, 2024).)
